Assay results as given in patent US12018023B2 (NERVIANO MEDICAL SCIENCES S.R.L., priority 2018, dated 2024).

Experiments:
[1] = target: T1, IDH1^R132H homodimer enzyme (Homo sapiens, UniProt O75874, R132H); test: NADPH depletion assay, IDH1 R132H; format: biochemical
T1 construct: purchased not specified
How it was run: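 IDH1 R132H enzyme (8 nM as diluted) in Tris-HCl pH 7.6 with 10 mM MgCl2, 0.001% Triton X-100 and 4 mM β-mercaptoethanol is preincubated 15 min at RT with compound. Substrate mix (12 uM NADPH, 3.4 mM α-ketoglutarate) is added for 60 min; remaining NAD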

[2] = target: T2, IDH1^R132C (Homo sapiens, UniProt O75874, R132C); test: NADPH depletion assay, IDH1 R132C; format: biochemical
T2 construct: purchased not specified
How it was run: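 IDH1 R132C (2 nM) preincubated 15 min at RT with compound in Tris-HCl pH 7.6/MgCl2 buffer, then 60 min RT with NADPH and 0.14 mM alpha-ketoglutarate. Remaining NADPH read by diaphorase/resazurin fluorescence (Ex544/Em590).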

[3] = target: T3, IDH2^R172K (Homo sapiens, UniProt P48735, R172K); test: NADPH depletion assay, IDH2 R172K; format: biochemical
T3 construct: purchased not specified
T3 sequence (P48735 40-452 R172K): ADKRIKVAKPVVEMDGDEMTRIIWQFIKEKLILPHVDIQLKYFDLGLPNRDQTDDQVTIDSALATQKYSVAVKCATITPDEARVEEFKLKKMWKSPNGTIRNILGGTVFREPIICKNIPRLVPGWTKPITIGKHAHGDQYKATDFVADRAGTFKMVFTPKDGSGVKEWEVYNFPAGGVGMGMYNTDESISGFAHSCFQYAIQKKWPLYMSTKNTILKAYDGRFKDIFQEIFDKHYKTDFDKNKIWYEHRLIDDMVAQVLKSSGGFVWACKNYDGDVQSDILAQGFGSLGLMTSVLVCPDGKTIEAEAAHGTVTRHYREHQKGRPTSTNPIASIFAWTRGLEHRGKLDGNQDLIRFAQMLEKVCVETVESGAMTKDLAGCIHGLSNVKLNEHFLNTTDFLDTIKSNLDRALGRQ
How it was run: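 IDH2 R172K (16 nM) was preincubated 15 min at RT with compound (1:3 series from 1 mM in DMSO) in Tris pH 7.6/NaCl/MgCl2/Triton/β-mercaptoethanol. The reaction ran 60 min at RT with 0.55 mM alpha-ketoglutarate and NADPH (12 μM in the substrate mix). Remaining NADPH was read with diaphorase/resazurin fluorescence at Ex544/Em590.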

[4] = target: T4, IDH1WT enzyme (Homo sapiens, UniProt O75874); test: Enzymatic assay for IDH1 wild-type (NADPH forming assay); format: biochemical
T4 construct: purchased not specified
How it was run: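 Compounds (10-point 1:3 series from 1 mM in DMSO stock) preincubated 15 min at RT with 0.016 nM enzyme in Tris-HCl pH 7.6, NaCl, MgCl2, Triton X-100, β-mercaptoethanol. Started with 400 μM NADP+, 40 μM isocitrate, diaphorase, 7 μM resazurin (Substrate Mix concentrations); resorufin fluorescence Ex544/Em590 read continuously.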

[5] = tested on: U87MG_IDH1R132H; test: Cellular 2-HG production assay, U87-MG-IDH1 R132H; format: cell-based; details: inhibition of 2HG production, 72 hr incubation, LC-MS/MS
How it was run: (§1)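 Cells in E-MEM/10% FCS (G418 500 μg/mL for the transfected U87-MG line) at 500 per well got compound 24 h after seeding and were incubated 72 h at 37 °C. Medium 2-HG was measured by LC-MS/MS with 2-HG-d3 internal standard; IC50 came from sigmoidal fitting versus controls.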

[6] = tested on: HT-1080 (IDH1^R132C); test: Cellular 2-HG production assay, HT-1080; format: cell-based; details: Homo sapiens, HT-1080, 72 h, inhibition of 2HG production, 72 hr incubation, LC-MS/MS; read-out: HT1080 2-HG IC50
How it was run: as §1

T2 sequence (O75874 whole entry R132C): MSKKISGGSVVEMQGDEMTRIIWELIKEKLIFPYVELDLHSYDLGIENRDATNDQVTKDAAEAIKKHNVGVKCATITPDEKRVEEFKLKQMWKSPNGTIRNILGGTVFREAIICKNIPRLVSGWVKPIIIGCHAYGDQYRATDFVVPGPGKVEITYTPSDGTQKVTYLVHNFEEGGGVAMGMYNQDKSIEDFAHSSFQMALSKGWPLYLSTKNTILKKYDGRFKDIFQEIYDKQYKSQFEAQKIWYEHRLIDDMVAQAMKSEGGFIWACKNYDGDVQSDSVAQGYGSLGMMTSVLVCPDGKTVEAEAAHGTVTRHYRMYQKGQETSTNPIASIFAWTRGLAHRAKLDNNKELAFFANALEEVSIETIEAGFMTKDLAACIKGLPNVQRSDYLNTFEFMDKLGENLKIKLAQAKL
T4 sequence (O75874 whole entry): as the sequence (O75874 whole entry R132C) above, with C132R counted along it
T1 sequence (O75874 whole entry R132H): as the sequence (O75874 whole entry R132C) above, with C132H counted along it

IC50 [1] [nM] | IC50 [2] [nM] | IC50 [3] [nM] | IC50 [4] [nM] | IC50 [5] [nM] | IC50 [6] [nM] | SMILES
7 | 5 | 49 | 109 | 0.4 | 1.4 | C=CC(=O)N1CCN([C@@H](CC)c2ccc([C@H](C)Nc3ncc4ccc(=O)n(C(C)C)c4n3)cc2)CC1 [cpd 227, 2-{[(1S)-1-{4-[(1S)-1-(4-acryloylpiperazin-1-yl)propyl]phenyl}ethyl]amino}-8-(propan-2-yl)pyrido[2,3-d]pyrimidin-7(8H)-one]
83 | 44 | 386 | 839 | 13 | 20 | C=CC(=O)N1CCN(C(CC)c2ccc([C@@H](C)Nc3ncc4ccc(=O)n(C(C)C)c4n3)cc2)CC1 (stereo in doubt) [cpd 229, 2-{[(1R)-1-{4-[(1R)-1-(4-acryloylpiperazin-1-yl)propyl]phenyl}ethyl]amino}-8-(propan-2-yl)pyrido[2,3-d]pyrimidin-7(8H)-one]
71 | 30 | 5570 | 1330 | 370 | 203 | C[C@H](Nc1ncc2ccc(=O)n(CC(C)(C)C)c2n1)c1ccc(CN2CCC(F)(F)CC2)c(F)c1 [cpd 94, 2-{[(1S)-1-{4-[(4,4-difluoropiperidin-1-yl)methyl]-3-fluorophenyl}ethyl]amino}-8-(2,2-dimethylpropyl) pyrido[2,3-d]pyrimidin-7(8H)-one]
42 | 21 | 264 | 720 | 8 | 22 | C=CC(=O)N1CCN(Cc2ccc([C@H](C)Nc3ncc4ccc(=O)n(CC(C)(C)C)c4n3)cc2)CC1 [cpd 139, 2-{(S)-1-[4-(4-Acryloyl-piperazin-1-ylmethyl)-phenyl]-ethylamino}-8-(2,2-dimethyl-propyl)-8H-pyrido[2,3-d]pyrimidin-7-one]
